Measurements: US9987256B2, “CFTR corrector for the treatment of genetic disorders affecting striated muscle” (UNIVERSITA' DEGLI STUDI DI PADOVA, priority 2012, dated 2018)
Residue numbers refer to the chain shown, from its start. Where a SMILES comes first, the peptide text is derived from it. The star is where a group is joined. Cbz = O=C(OCc1ccccc1)*

Key:
[1] = target: T1, R98H mutant of alpha-sarcoglycan (Homo sapiens, UniProt Q16586, R98H); test: Western blot rescue of R98H mutant of alpha-sarcoglycan in HEK293 cell model; format: cell-based; details: FIG. 1; HEK293, 24 hours; C 5 μM, B 10 μM, E 10 μM, F 10 μM, A 2 μM, D 10 μM; relative to R98H cells treated with DMSO
T1 construct: expressed in transfected cells; host or cells: HEK293
T1 sequence (Q16586 24-387 R98H): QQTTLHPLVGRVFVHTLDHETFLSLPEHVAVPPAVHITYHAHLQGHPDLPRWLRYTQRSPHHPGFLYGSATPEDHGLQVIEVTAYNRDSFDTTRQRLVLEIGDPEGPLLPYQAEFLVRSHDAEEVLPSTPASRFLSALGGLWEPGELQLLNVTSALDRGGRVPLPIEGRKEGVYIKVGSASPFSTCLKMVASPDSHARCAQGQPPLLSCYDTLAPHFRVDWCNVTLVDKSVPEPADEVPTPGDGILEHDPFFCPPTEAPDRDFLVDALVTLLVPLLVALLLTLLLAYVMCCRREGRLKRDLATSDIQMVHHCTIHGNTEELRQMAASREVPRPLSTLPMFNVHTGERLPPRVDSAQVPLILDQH
Description: HEK293 cells expressing different α-SG mutants have been treated with the Compounds A, B, C, D, E, F, H, I, Q, R, S and T according to protocols developed in CF studies [Loo and Clarke 2011; Becq et al 2011, Pedemonte et al 2005; Wang et al 2006]. Concentration and time-dependent recovery of treated mutants have been evaluated by Western blotting. The proteasome inhibitor MG132, at the concentration of 10 μM, or DMSO at 1‰ concentration, have been used as positive and negative control, respectively.
In FIG. 1 the result obtained by treating cells expressing the R98H mutant of α-SG for 24 hours with Compound C 5 μM, Compound B 10 μM, Compound E 10 μM, Compound F 10 μM, Compound A 2 μM, Compound D 10 μM are shown. At the end of treatments, cells were lysed and total proteins resolved by SDS-PAGE. Western blotting has been performed by using α-SG specific antibody and β-actin specific antibody, used to normalize loaded proteins (in FIG. 1, upper panel, a representative experiment is shown). The expression of α-SG in different samples has been determined by densitometric analysis of the western blotting experiments and indicated as percentage of the protein present in cells expressing the R98H mutant treated with DMSO (negative control).
In FIG. 4 the result obtained by treating cells expressing the R98H mutant of α-SG for 24 hours with either Compound H 15 μM, Compound I 10 μM, Compound T 15 μM, Compound A 2 μM, or DMSO at 1‰ concentration, used as negative control, are shown. Cells expressing the wild type form of α-sarcoglycan have been used for comparison. At the end of treatments, cells were lysed and total proteins resolved by SDS-PAGE. Western blotting has been performed by using α-SG specific antibody and β-actin specific antibody, used to normalize loaded proteins (in upper panel of FIG. 4, a representative experiment is shown). The expression of α-SG in different samples has been determined by densitometric analysis of the western blotting experiments and indicated as percentage of the protein present in cells expressing the wild type form of α-sarcoglycan. […] The compounds tested induced the recovery of the R98H mutant to levels that in some cases were even greater than those present in HEK cells expressing the wild type protein.
(§1) In FIG. 5 the result obtained by treating cells expressing the R98H mutant of α-SG for 24 hours with either increasing concentration of Compound R (1, 2.5, 5 μM) or DMSO at 1‰ concentration, used as negative control, are shown. Cells expressing the wild type form of α-sarcoglycan have been used for comparison. At the end of treatments, cells were lysed and total proteins resolved by SDS-PAGE. Western blotting has been performed by using α-SG specific antibody and β-actin specific antibody, used to normalize loaded proteins (in upper panel of FIG. 5, a representative experiment is shown). The expression of α-SG in different samples has been determined by densitometric analysis of western blotting experiments and indicated as percentage of the protein present in cells expressing the wild type form of α-sarcoglycan.
as §1, with “6” for “5”, “Q (5, 10 μM), increasing concentration of Compound S (10, 15” for “R (1, 2.5, 5”, “1% o” for “1‰”, “6,” for “5,”

[2] = target: T2, V247M mutant of alpha-sarcoglycan (Homo sapiens, UniProt Q16586, V247M); test: Confocal immunofluorescence, membrane localization of V247M alpha-sarcoglycan in HEK293 cells; format: cell-based; details: FIG. 2; HEK293, 24 hours; E 10 μM, D 10 μM, MG132 positive control; not permeabilized cells
T2 construct: expressed in transfected cells; host or cells: HEK 293
T2 sequence (Q16586 24-387 V247M): T1 sequence (Q16586 24-387 R98H) with H75R, V224M
Description: The cellular localization of either the V247M or R98H mutants, upon corrector treatments, has been verified by confocal immunofluorescence.
In the experiment reported in FIG. 2, HEK 293 cells expressing the V247M mutant have been treated for 24 hours with either Compound E (10 μM) or Compound D (10 μM), MG132 (positive control) or DMSO at 1‰ concentration (negative control). At the end of treatments, not permeabilized cells were incubated with a monoclonal antibody specific for an extracellular epitope of α-sarcoglycan in order to mark only the membrane resident α-sarcoglycan. By comparison, cells expressing the wild type form of α-sarcoglycan have also been used.

R164H mutant of SERCA1 = target: T3, R164H mutant of SERCA1 (Bos taurus, UniProt Q0VCY0, R164H); test: Western blot rescue of R164H mutant of SERCA1 in HEK293 cells; format: cell-based, bovine; details: FIG. 3; HEK293, 24 hours; C 5 μM, B 10 μM, E 10 μM, F 10 μM, A 2 μM, D 10 μM; relative to wild type
T3 construct: expressed in transfected cells; host or cells: HEK 293
Description: In FIG. 3 are reported the results obtained with HEK 293 cells expressing the R164H mutant of SERCA1 treated for 24 hours with either Compound C 5 μM, Compound B 10 μM, Compound E 10 μM, compound F 10 μM, Compound A 2 μM, compound D 10 μM, MG132 (proteasome inhibitor) 10 μM, used as positive control or the vehicle DMSO at 1‰ concentration, used as negative control. At the end of treatments, cells were lysed and total protein resolved by SDS-PAGE. Western blotting analysis has been performed by using SERCA1 specific antibody and β-actin specific antibody, to normalize loaded proteins. In the upper panel of FIG. 3 is reported a representative Western blotting experiment. The expression of SERCA1 in different samples has been determined by densitometric analysis and indicated as percentage of SERCA 1 content present in wild type expressing cells treated with DMSO.
In FIG. 10 is reported the content of SERCA1 protein present in HEK 293 cells transfected with the R164H mutant of SERCA1 and treated for 24 hours with either Compound H 15 μM, Compound I 10 μM, compound Q 10 μM, Compound R 5 μM, Compound S 15 μM, Compound T 15 μM or the vehicle DMSO at 1‰ concentration, used as negative control. Cells expressing the wild type form of SERCA1 have also been used for comparison. At the end of treatments, cells were lysed and total protein resolved by SDS-PAGE. Western blotting analysis has been performed by using SERCA1 specific antibody and β-actin specific antibody, to normalize loaded proteins. The expression of SERCA1 in different samples has been determined by densitometric analysis and indicated as percentage of SERCA 1 content present in wild type expressing cells. The graph of FIG. 10 reports the average values (+/− standard error) of at least three independent experiments.

D307H CASQ2 mutant = details: CASQ2 D307H/D307H knock in mouse, systemic administration; cited from earlier work

T3 sequence (Q0VCY0 whole entry R164H): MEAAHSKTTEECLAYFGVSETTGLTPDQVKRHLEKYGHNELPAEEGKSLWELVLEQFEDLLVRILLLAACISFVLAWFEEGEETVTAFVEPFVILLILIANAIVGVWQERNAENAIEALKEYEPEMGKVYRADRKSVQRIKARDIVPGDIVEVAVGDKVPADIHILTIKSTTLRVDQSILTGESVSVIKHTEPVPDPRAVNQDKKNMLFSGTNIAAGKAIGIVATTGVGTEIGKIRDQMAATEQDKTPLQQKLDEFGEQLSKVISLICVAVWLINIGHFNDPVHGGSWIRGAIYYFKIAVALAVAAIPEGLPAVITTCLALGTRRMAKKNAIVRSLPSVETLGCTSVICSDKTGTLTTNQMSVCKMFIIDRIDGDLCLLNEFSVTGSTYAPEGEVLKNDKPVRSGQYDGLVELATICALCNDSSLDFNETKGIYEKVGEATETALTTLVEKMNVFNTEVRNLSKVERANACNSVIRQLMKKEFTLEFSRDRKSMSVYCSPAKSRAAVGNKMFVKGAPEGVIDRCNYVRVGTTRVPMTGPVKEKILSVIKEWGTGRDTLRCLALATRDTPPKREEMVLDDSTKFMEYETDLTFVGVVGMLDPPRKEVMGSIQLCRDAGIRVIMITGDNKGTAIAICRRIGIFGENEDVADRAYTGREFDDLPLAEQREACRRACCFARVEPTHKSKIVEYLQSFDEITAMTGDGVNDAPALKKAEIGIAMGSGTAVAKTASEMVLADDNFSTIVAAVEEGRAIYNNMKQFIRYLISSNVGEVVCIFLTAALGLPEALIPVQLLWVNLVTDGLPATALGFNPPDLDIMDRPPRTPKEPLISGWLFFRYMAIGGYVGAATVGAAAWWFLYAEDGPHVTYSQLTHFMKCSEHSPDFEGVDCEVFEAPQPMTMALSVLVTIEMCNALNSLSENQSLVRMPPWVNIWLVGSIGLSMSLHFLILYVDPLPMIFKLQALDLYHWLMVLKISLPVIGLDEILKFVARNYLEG

SMILES | alpha-sarcoglycan protein level (western blot, densitometry), rescue of R98H mutant [1] | plasma membrane localization of V247M alpha-sarcoglycan mutant [2] | SERCA1 protein level (western blot, densitometry), rescue of R164H mutant (R164H mutant of SERCA1) | cardiac arrhythmia developed as consequence of CASQ2 mutant degradation (D307H CASQ2 mutant) | partial rescue of the mutant CASQ2, increase over not treated mice (D307H CASQ2 mutant) [%]
O=C(Nc1ncc(C(c2ccccc2Cl)N2CC[C@@H](O)C2)s1)C1(c2ccc3c(c2)OCO3)CC1 (stereo in doubt) [Compound D, 1-(benzo[d][1,3]dioxol-5-yl)-N-(5-((S)-(2-chlorophenyl) ((R)-3-hydroxypyrrolidin-1-yl)methyl)thiazol-2-yl)cyclopropanecarboxamide] | promote the rescue | promoted the correct plasma membrane localization | promote the rescue | – | –
COc1ccc(S(=O)(=O)N2CCN(C(C)c3nc(OC4CCCCC4)c4ccccc4n3)CC2)cc1 (stereo not shown) [Compound B, 4-Cyclohexyloxy-2-{1-[4-(4-methoxy-benzensulfonyl)-piperazin-1-yl]-ethyl}-quinazoline] | promote the rescue | – | promote the rescue | – | –
CC(c1nc(N2CCCCC2)c2ccccc2n1)N1CCN(S(=O)(=O)c2ccc(Cl)cc2)CC1 (stereo not shown) [Compound C, 2-{1-[4-(4-Chloro-benzensulfonyl)-piperazin-1-yl]ethyl}-4-piperidin-1-yl-quinazoline] | promote the rescue | – | promote the rescue | – | –
CC(C)C[C@@H](C=O)NC(=O)[C@H](CC(C)C)NC(=O)[C@H](CC(C)C)NC(=O)OCc1ccccc1 [MG132, reference compound] (Cbz-Leu-Leu-Leu-aldehyde) | – | promoted V247M membrane localization | – | – | –
CC(C)C[C@H](NC(=O)[C@H](Cc1ccccc1)NC(=O)c1cnccn1)B(O)O [Velcade, bortezomib] | – | – | – | can be counteracted | 20
